Assay [1] deals with T1, Thrombopoietin receptor (Homo sapiens) (UniProt P40238).
T1 sequence (whole entry): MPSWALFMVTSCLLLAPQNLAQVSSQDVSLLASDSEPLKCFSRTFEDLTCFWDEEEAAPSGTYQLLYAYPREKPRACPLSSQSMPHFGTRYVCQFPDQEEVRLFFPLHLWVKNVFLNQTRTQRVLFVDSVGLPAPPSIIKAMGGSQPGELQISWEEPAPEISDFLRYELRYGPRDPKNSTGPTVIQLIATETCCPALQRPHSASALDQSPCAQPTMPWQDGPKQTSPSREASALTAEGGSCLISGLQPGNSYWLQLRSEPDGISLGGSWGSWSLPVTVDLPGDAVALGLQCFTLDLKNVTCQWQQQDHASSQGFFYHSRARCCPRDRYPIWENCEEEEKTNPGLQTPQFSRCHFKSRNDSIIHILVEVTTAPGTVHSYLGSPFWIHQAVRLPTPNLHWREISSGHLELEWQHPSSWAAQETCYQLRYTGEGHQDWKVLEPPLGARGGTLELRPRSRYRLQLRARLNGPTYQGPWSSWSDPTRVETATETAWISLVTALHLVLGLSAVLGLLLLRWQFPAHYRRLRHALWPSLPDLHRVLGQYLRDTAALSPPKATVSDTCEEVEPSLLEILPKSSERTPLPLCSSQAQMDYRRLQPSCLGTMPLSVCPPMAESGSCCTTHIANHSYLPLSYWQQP
The experiment in a line: Agonist activity at human TPO receptor expressed in mouse BaF-B03 cells assessed as induction of cell proliferation after 20 hrs by WST-1 assay. It is filed as cell-based.

The test system of the next assay is Mus musculus. The experiment in a line: Increase in platelet levels in mouse expressing human transmembrane site of TPO receptor administered as po bid for 2 weeks measured after 3 days to 3 weeks post initiation of initial dose relative to vehicle-treated control. It is filed as functional, organism-based.

Each structure is given as a SMILES string. The source made the active and inactive calls. The rule behind the calls is not given here.

Turning to `CCCCCCO[C@@H](C)c1cccc(-c2csc(NC(=O)c3cc(Cl)c(/C=C(\C)C(=O)O)c(Cl)c3)n2)c1OC`, in assay [1], the ED50 was 1.09 nM. The outcome with Mus musculus was Active. Regarding `CCCCCC[C@H](OC)c1cccc(-c2csc(NC(=O)c3cc(Cl)c(/C=C(\C)C(=O)O)c(Cl)c3)n2)c1OC`, the ED50 in assay [1] turned out to be 2.08 nM. Besides, in the assay with Mus musculus, the outcome was Active. In the same order, the values of `CCCCCC[C@@H](OC)c1cccc(-c2csc(NC(=O)c3cc(Cl)c(/C=C(\C)C(=O)O)c(Cl)c3)n2)c1OC` are 3.09 nM and “Active”. In the same order, the values of `CCCCCCO[C@H](C)c1cccc(-c2csc(NC(=O)c3cc(Cl)c(/C=C(\C)C(=O)O)c(Cl)c3)n2)c1OC` are 1.4 nM and “Active”. On to `CCCO[C@H](c1cccc(-c2csc(NC(=O)c3cc(Cl)c(/C=C(\C)C(=O)O)c(Cl)c3)n2)c1OC)C(C)(C)C`, for which the outcome in the assay with Mus musculus was Active.

For the origin of these results see ChEMBL document CHEMBL3880436, “Pharmaceutical composition containing optically active compound having thrombopoietin receptor agonist activity, and intermediate therefor” (2013).
